Laboratory results reported in patent publication US20160338351A1, “(S)-ABSCISIC ACID DERIVATIVES FOR ENHANCED GRAPE COLORATION” (Valent BioSciences Corporation, priority 2015, published 2016).
Where a name gives a salt, the structure may show the parent alone.

Experiments:
Assay type in all cases: in vivo, Vitis vinifera
[1] = tested on: Crimson Seedless grape clusters; assay: Field study, Example 1: visual rating of red grape coloration, % of berries with marketable color; settings: for activity relative to S-ABA for enhancing grape coloration: from % marketable color data, 40 ppm vs 400 ppm S-ABA
Description: (§1) A field study was conducted in California to compare the efficacy of S-ABA to 3′-methyl-(S)-ABA in promoting red grape coloration. S-ABA and 3′-methyl-(S)-ABA were formulated as aqueous solutions of the corresponding potassium salt to the desired concentrations with the final pHs being between 6.5 and 7.2. Individual Crimson Seedless grape clusters were selected and tagged, with 20 tagged clusters per treatment. The treatments were applied as cluster-directed sprays using a trigger sprayer at 15 to 20 mL per cluster to ensured good coverage of the grapes. Application of 15 to 20 milliliters per cluster simulates application of about 109 gallons per acre directed at the approximately 40 clusters per vine in a vineyard with 518 vines per acre. Based on these estimates, Applicant determined the approximate grams per acre. The equation is as follows: 20 ml/cluster×40 cluster/vine=800 ml/vine×518 vine/acre=(414,400 ml/acre)/(1000 ml/liter)=414 liters/acre. An estimation of grams per acre was made by multiplying the mg per cluster with 20,720 clusters/acre (40 clusters/vine×518 vines/acre=20,720 clusters/acre).
(§2) Periodically after the treatments, the grape clusters were evaluated for color development by visual ratings over a six-week period. The coloration was graded on a 1 to 8 grading scale, where a rating of 1 has very little or no red color and a rating of 8 has a deep or dark red color. The percentages of berries that reached marketable red coloration for each cluster were averaged and recorded for each treatment. Additionally, representative berries from each treatment group were harvested about four weeks after treatment and analyzed for anthocyanin content.

[2] = tested on: Crimson Seedless grape clusters; assay: Field study, Example 1: anthocyanin content of berries harvested about four weeks after treatment; settings: for Total Anthocyanin Content: berries harvested about four weeks after treatment
Description: as §1, §2

[3] = tested on: Crimson Seedless grapes; assay: Trial, Example 2: visual color rating of grape clusters on a 1 to 8 scale; design: key to Color Ratings: 1 = little/no red color, 8 = deep/dark red color; settings: for Color Ratings: applied day 0 and day 11, 1 to 8 grading scale
Description: Another trial was conducted in California on Crimson Seedless grapes to compare the efficacy of S-ABA, 3′-methyl-(S)-ABA and 3′-propargyl-(S)-ABA in promoting coloration. All three compounds were formulated as aqueous solutions of the corresponding potassium salt to the desired concentrations, with the final pHs being between 6.5 and 7.2. Individual Crimson Seedless grape clusters were selected and tagged, with 20 tagged clusters per treatment. The solutions were applied as cluster-directed sprays using a trigger sprayer at 15 to 20 milliliters per cluster which ensured good coverage of the grapes. The treatments were applied on day 0 and day 11 of the trial. Periodically during the trial, the grape clusters were evaluated for color development by visual ratings over a six-week period and the coloration was graded on a 1 to 8 grading scale, where a rating of 1 has very little or no red color and a rating of 8 has a deep or dark red color.

SMILES: CC1=C(C)[C@](O)(/C=C/C(C)=C\C(=O)O)C(C)(C)CC1=O [3′-methyl-(S)-ABA, K^+ salt, (2Z,4E)-5-((S)-1-hydroxy-2,3,6,6-tetramethyl-4-oxocyclohex-2-en-1-yl)-3-methylpenta-2,4-dienoic acid]
- coloration effect compared with 6 to 8 mg per cluster (400 ppm) of S-ABA ([1]; 0.6 to 0.8 mg per cluster (40 ppm, 15 to 20 mL)): even more efficacious
- Coloring Ratings, % of the berries with marketable color ([1]; 20 ppm, 0.3-0.4 mg/cluster, 6-8 grams/acre, 7 DAT): 34%
- Coloring Ratings, % of the berries with marketable color ([1]; 20 ppm, 0.3-0.4 mg/cluster, 6-8 grams/acre, 14 DAT): 67%
- Coloring Ratings, % of the berries with marketable color ([1]; 20 ppm, 0.3-0.4 mg/cluster, 6-8 grams/acre, 27 DAT): 79%
- Coloring Ratings, % of the berries with marketable color ([1]; 20 ppm, 0.3-0.4 mg/cluster, 6-8 grams/acre, 33 DAT): 85%
- Coloring Ratings, % of the berries with marketable color ([1]; 20 ppm, 0.3-0.4 mg/cluster, 6-8 grams/acre, 43 DAT): 89%
- Coloring Ratings, % of the berries with marketable color ([1]; 40 ppm, 0.6-0.8 mg/cluster, 12-16 grams/acre, 7 DAT): 52%
- Coloring Ratings, % of the berries with marketable color ([1]; 40 ppm, 0.6-0.8 mg/cluster, 12-16 grams/acre, 14 DAT): 83%
- Coloring Ratings, % of the berries with marketable color ([1]; 40 ppm, 0.6-0.8 mg/cluster, 12-16 grams/acre, 27 DAT): 92%
- Coloring Ratings, % of the berries with marketable color ([1]; 40 ppm, 0.6-0.8 mg/cluster, 12-16 grams/acre, 33 DAT): 95%
- Coloring Ratings, % of the berries with marketable color ([1]; 40 ppm, 0.6-0.8 mg/cluster, 12-16 grams/acre, 43 DAT): 97%
- Coloring Ratings, % of the berries with marketable color ([1]; 200 ppm, 3-4 mg/cluster, 60-80 grams/acre, 7 DAT): 72%
- Coloring Ratings, % of the berries with marketable color ([1]; 200 ppm, 3-4 mg/cluster, 60-80 grams/acre, 14 DAT): 89%
- Coloring Ratings, % of the berries with marketable color ([1]; 200 ppm, 3-4 mg/cluster, 60-80 grams/acre, 27 DAT): 95%
- Coloring Ratings, % of the berries with marketable color ([1]; 200 ppm, 3-4 mg/cluster, 60-80 grams/acre, 33 DAT): 95%
- Coloring Ratings, % of the berries with marketable color ([1]; 200 ppm, 3-4 mg/cluster, 60-80 grams/acre, 43 DAT): 100%
- Coloring Ratings, % of the berries with marketable color ([1]; 400 ppm, 6-8 mg/cluster, 120-160 grams/acre, 7 DAT): 76%
- Coloring Ratings, % of the berries with marketable color ([1]; 400 ppm, 6-8 mg/cluster, 120-160 grams/acre, 14 DAT): 98%
- Coloring Ratings, % of the berries with marketable color ([1]; 400 ppm, 6-8 mg/cluster, 120-160 grams/acre, 27 DAT): 99%
- Coloring Ratings, % of the berries with marketable color ([1]; 400 ppm, 6-8 mg/cluster, 120-160 grams/acre, 33 DAT): 99%
- Coloring Ratings, % of the berries with marketable color ([1]; 400 ppm, 6-8 mg/cluster, 120-160 grams/acre, 43 DAT): 99%
- marketable coloration ([1]; 400 ppm, 6 to 8 mg per cluster, 15 to 20 mL, in two weeks): ~90%
- activity relative to S-ABA for enhancing grape coloration [1]: approximately 10 times
- activity relative to S-ABA for enhancing grape coloration ([1]; listed as 3′-methyl-(S)-abscisic acid): ten times as effective as S-ABA
- Total Anthocyanin Content ([2]; 0.3-0.4 mg/cluster (20 ppm, 15-20 mL)): 68 mg/L
- Total Anthocyanin Content ([2]; 0.6-0.8 mg/cluster (40 ppm, 15-20 mL)): 78 mg/L
- Total Anthocyanin Content ([2]; 3-4 mg/cluster (200 ppm, 15-20 mL)): 181 mg/L
- Total Anthocyanin Content ([2]; 6-8 mg/cluster (400 ppm, 15-20 mL)): 247 mg/L
- activity relative to S-ABA in promoting Crimson Seedless grape coloration ([2]; from anthocyanin analysis of Table 2): approximately 10 times
- calculated relative potency versus S-ABA ([2]; rate of S-ABA needed to achieve the same effect): 8.4 times
- Color Ratings ([3]; 4 ppm, 0.06-0.08 mg/cluster, 1.2-1.6 g/acre, 3 DAT): 1
- Color Ratings ([3]; 4 ppm, 0.06-0.08 mg/cluster, 1.2-1.6 g/acre, 10 DAT): 1.6
- Color Ratings ([3]; 4 ppm, 0.06-0.08 mg/cluster, 1.2-1.6 g/acre, 14 DAT): 1.9
- Color Ratings ([3]; 4 ppm, 0.06-0.08 mg/cluster, 1.2-1.6 g/acre, 21 DAT): 2.4
- Color Ratings ([3]; 4 ppm, 0.06-0.08 mg/cluster, 1.2-1.6 g/acre, 31 DAT): 2.7
- Color Ratings ([3]; 4 ppm, 0.06-0.08 mg/cluster, 1.2-1.6 g/acre, 41 DAT): 2.8
- Color Ratings ([3]; 20 ppm, 6-8 g/acre, 3 DAT): 1.3
- Color Ratings ([3]; 20 ppm, 6-8 g/acre, 10 DAT): 1.7
- Color Ratings ([3]; 20 ppm, 6-8 g/acre, 14 DAT): 2.3
- Color Ratings ([3]; 20 ppm, 6-8 g/acre, 21 DAT): 2.9
- Color Ratings ([3]; 20 ppm, 6-8 g/acre, 31 DAT): 3.5
- Color Ratings ([3]; 20 ppm, 6-8 g/acre, 41 DAT): 3.5
- Color Ratings ([3]; 40 ppm, 0.6-0.8 mg/cluster, 12-16 g/acre, 3 DAT): 1.1
- Color Ratings ([3]; 40 ppm, 0.6-0.8 mg/cluster, 12-16 g/acre, 10 DAT): 1.3
- Color Ratings ([3]; 40 ppm, 0.6-0.8 mg/cluster, 12-16 g/acre, 14 DAT): 2.7
- Color Ratings ([3]; 40 ppm, 0.6-0.8 mg/cluster, 12-16 g/acre, 21 DAT): 3.9
- Color Ratings ([3]; 40 ppm, 0.6-0.8 mg/cluster, 12-16 g/acre, 31 DAT): 4.7
- Color Ratings ([3]; 40 ppm, 0.6-0.8 mg/cluster, 12-16 g/acre, 41 DAT (end of six-week evaluation)): 5.5
- potency in promoting red color development compared with another compound ([3]; Crimson Seedless grapes): more effective than S-ABA
- red color development in comparison with the untreated control ([3]; six-week evaluation period): dose-dependent accelerated red color development
